Measured values taken from paper PMC8746695, “Zinc-Chelating Compounds as Inhibitors of Human and Bacterial Zinc Metalloproteases” (Molecules, 2021).

Assays:
[1] = in solution; read-out: Kd for zinc; cited from earlier work
MMP-14 = molecular target: T1, MMP-14 (Homo sapiens, UniProt P50281); assay: Time-dependent slow, reversible/irreversible binding of TPA to MMP-14 (pre-incubation and micro-dialysis); format: biochemical; details: for vi/v0 MMP-14: 100 μM TPA
T1 construct: human MT1-MMP/MMP-14 (catalytic domain); purchased Calbiochem (San Diego, CA, USA)
Method: We tested if TPA is a time-dependent irreversible or reversible inhibitor of MMP-14. In these experiments, two different concentrations of MMP-14 (45 and 5.6 nM) were pre-incubated up to 48 min at 37 °C with 10.0 and 11.1 μM of TPA, respectively, as described in Materials and Methods. As controls, the same amount of MMP-14 (without TPA but with the same concentration of DMSO) was identically pre-incubated at 37 °C. […] In the presence of 100 μM TPA, vi/v0 was 0.61 after 2 min and 0.03 after 11 min pre-incubation at 37 °C. To determine whether the observed time-dependent inhibition was due to reversible or irreversible inhibition, a solution of 45 nM MMP-14 was first pre-incubated for approximately 40 min at 37 °C with 10 μM TPA (1% DMSO in assay buffer, pH 7.5). As a control, MMP-14 (without TPA but with the same concentration of DMSO) was also pre-incubated for approximately 40 min at 37 °C. […]
In pre-incubation tests with high concentration of MMP-14, 90 μL 50 nM MMP-14 was mixed with 9.0 μL 110 μM TPA (dissolved in 0.1 M Hepes pH 7.5 containing 10 mM CaCl2, 0.005% Brij-35 and 10% DMSO) and incubated at 37 °C for up to 48 min. […] At different time points, 10 μL of the enzyme (with and without TPA) was added to 90 μL of 0.1 M Hepes pH 7.5 containing 10 mM CaCl2, 0.005% Brij-35 and 11.1 μM ES001 and the initial rate reaction velocity (v) was determined as described in Section 3.4. using a Perkin Elmer LS 50 Luminescence spectrometer. […]
In pre-incubation tests with a low concentration of MMP-14, 60 μL 50 nM MMP-14 was mixed with 420 μL 0.1 M Hepes pH 7.5 (containing 10 mM CaCl2, 0.005% Brij-35) and 60 μL of either 0.1 M Hepes pH 7.5 containing 10 mM CaCl2, 0.005% Brij-35 and 10% DMSO (control) or 60 μL 100 μM TPA (dissolved in 0.1 M Hepes pH 7.5 containing 10 mM CaCl2, 0.005% Brij-35 and 10% DMSO). At different time points, 90 μL of the enzyme (with and without TPA) was mixed with 10 μL 100 μM ES001 and the initial rate of the reaction was determined as described above. […]

c1ccc(CN(Cc2ccccn2)Cc2ccccn2)nc1 [TPA, tri(2-pyridinemethyl)amine, reference compound]
Kd [1]: ~0.01 nM
vi/v0 MMP-14 (MMP-14; 2 min pre-incubation at 37 °C): 0.61
vi/v0 MMP-14 (MMP-14; 11 min pre-incubation at 37 °C): 0.03
type of inhibition of MMP-14 (MMP-14; pre-incubation 37 °C, micro-dialysis 4 °C): slow, reversible inhibitor
